In ChEMBL document CHEMBL1158510, “Hybrid anticancer agents: isothiocyanate-progesterone conjugates as chemotherapeutic agents and insights into their cytotoxicities” (Bioorg Med Chem Lett, 2010):
pIC50: −log10 of the molar value.

Assays:
Type in all cases: functional, cell-based
[1] = test system: MCF7; assay: Cytotoxicity against human MCF7 cells after 72 hrs by MTT assay; settings: MCF7, 72 h
[2] = test system: BT-20; assay: Cytotoxicity against human BT20 cells after 72 hrs by MTT assay; settings: BT-20, 72 h
[3] = test system: MDA-MB-231; assay: Cytotoxicity against human MDA-MB-231 cells after 72 hrs by MTT assay; settings: MDA-MB-231, 72 h
[4] = test system: PC-3; assay: Cytotoxicity against human PC3 cells after 72 hrs by MTT assay; settings: PC-3, 72 h

Work on `CC(=O)[C@H]1CC[C@H]2[C@@H]3CCC4=C/C(=N/NC(N)=S)CC[C@]4(C)[C@H]3CC[C@]12C` yielded a pIC50 [1] of 4.70, a pIC50 [2] of 5.28 and a pIC50 [3] of 4.60. The pIC50 [4] was 4.80.
